The record followed here is patent US7064124B2, “NF-κB inhibitor containing substituted benzoic acid derivative as active ingredient” (Daiichi Suntory Pharma Co., Ltd., priority 2001, dated 2006).

Data set [1] concerns carrageenin-induced foot edema in Wister male rat. Put plainly: Acute inflammation model: carrageenin foot edema, compound given orally. The data set is classed as in vivo. Conditions: oral 100 mg/kg immediately after carrageenin; foot volume 2 hours after carrageenin; vs vehicle group. As to the method:
The foot edma ratio was calculated according to the formula: (volume of foot after administration of carrageenin−volume of foot before administration)/volume of foot before administration×100, and shown by the average of foot edma ratio +/−SE.
On the footpad of the right hind leg of a 5-week-old Wister male rat, 0.1 ml of 1 w/v % λ-carrageenin (Sigma) was subcutaneously administered. Immediately thereafter, the compound of Example 112 or the compound of Example 157 each suspended in a vehicle (0.5% HPC) was orally administered to give a dose of 100 mg/kg. As a positive control, indomethacin (sigma) was orally administered to give a dose of 10 mg/kg. The foot edema ratio was calculated according to the formula: (volume of foot 2 hours after administration of carrageenin−volume of foot before administration)/volume of foot before administration×100, using a volume meter (TK-101, manufactured by Unicom). For the comparison between the vehicle group and the drug administered group, a variance test was performed by the F-test and thereafter, Student's t test was performed when the variance was equal, or Aspin-Welch's t test was performed when the variance was not equal.
(Carrageenan injected into the paw causes an acute inflammation.)

Data set [2] has as its system NF-κB. In words: NF-κB luciferase reporter assay in A549/NF-κBLuc cells stimulated with IL-1β. The data set is classed as cell-based, human. Conditions: Homo sapiens, A549, A549/NF-κBLuc cells; compound added 1 hour before IL-1β, then 3 hours incubation; luciferase activity; read-out: NF-κB Inhibitory Activity (IC50). The gist of the method: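 A549 cells stably carrying an NF-κB-driven luciferase reporter (pNFκB-Luc, G418-selected) pre-treated with compound for 1 h, then stimulated with IL-1β and incubated a further 3 h. Luciferase signal used to derive IC50 for NF-κB inhibition.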
For orientation: Reporter assays use an easily measured gene product as a stand-in for the process of interest.

Data set [3] deals with GalN/LPS-stimulated C3H/HeN female mice. In words: In vivo sepsis model (GalN/LPS), compound given intraperitoneally. Also on record: species or system mouse. The following applies: i.p. 10, 30 or 100 mg/kg immediately after GalN/LPS, vs vehicle group. As to the method: A mixed solution of N-acetyl galactosamine (GalN, 20 mg, Sigma) and lipopolysaccharide (LPS, 5 μg, Sigma) was intraperitoneally administered as a stimulant to a 7-week-old C3H/HeN female mice and immediately thereafter, the compound of Example 112 suspended in a vehicle (0.5% hydroxypropyl cellulose (HPC), produced by Nippon Soda Co., Ltd.) was intraperitoneally administered to give a dose of 10 mg/kg, 30 mg/kg or 100 mg/kg. The TNF-α mRNA levels and the IL-1β mRNA levels in liver 60 minutes after the administration of stimulant each was measured by the real-time PCR method, and the TNF-α levels in plasma after 90 minutes were measured using the mouse TNF-α ELISA kit (Biosource). In the real-time PCR using PRISM7700 (PE Biosystems Japan) according to the protocol of PCR quantitative System (PE Biosystems Japan), mRNA was extracted from the liver and the TNF-α and IL-1β were detected with cDNA obtained by SuperScript Preamplification System (Lifetech Orient) as a template. For the detection, the following primers and TaqMan probes were used.
The RNA level in each sample was corrected by the expression level of glyceraldehyde 3-phosphate dehydrogenase (GAPDH) gene.
ELISA was performed according to the manual included in the kit. The comparison with the vehicle group was performed by the Dunnett's Multiple Comparison test using Stat-View (SAS Institute).

The test system is the same in data set [4]. In words: Sepsis model (GalN/LPS), compound given orally. Format: in vivo, mouse. Conditions: oral 10, 30 or 100 mg/kg 10 min before GalN/LPS, vs vehicle group; for TNF-α mRNA levels in liver: liver 60 min after stimulant, real-time PCR; for TNF-α levels in plasma: plasma 90 min after stimulant, ELISA. As to the method: Similarly to Experiment 2, a mixed solution of GalN (20 mg) and LPS (2 μg) was intraperitoneally administered as a stimulant to a 7-week-old C3H/HeN female mice. Ten minutes before that, the compound of Example 112 or the compound of Example 157 each suspended in a vehicle (0.5% HPC) was orally administered to give a dose of 10 mg/kg, 30 mg/kg or 100 mg/kg. The TNF-α mRNA levels in liver 60 minutes after the administration of stimulant were measured by the real-time PCR method, and the TNF-α levels in plasma after 90 minutes were measured using the mouse TNF-α ELISA kit. The comparison with the vehicle group was performed by the Dunnett's Multiple Comparison test using Stat-View.

The mark [5] stands for this setting: liver 60 min after stimulant, real-time PCR.

The structures appear in SMILES notation. pIC50: −log10 of the molar value.

What is called pIC50 is the negative decadic logarithm of the IC50, by convention in mol/L. For `COC1=C(OC)C(=O)C(Cc2ccc(OC(C)=O)c(C(=O)Nc3ccc(C(F)(F)F)cc3)c2)=C(C)C1=O` [Example 112, N-[5-(5,6-Dimethoxy-3-methyl-1,4-benzoquinon-2-yl)methyl-2-acetoxybenzoyl]-4-trifluoromethylaniline], the “acute inflammation (foot edema) caused by carrageenin” value in data set [1] is listed as “significantly suppressed”. Also, the pIC50 in data set [2] is 4.85. For the same compound, in data set [3] (setting [5]), the “IL-1β mRNA levels in liver” value is “suppressed” and the “TNF-α mRNA levels in liver” value is given as “suppressed dose dependently”. The “TNF-α levels in plasma” value in data set [3] (plasma 90 min after stimulant, ELISA) is recorded as “suppressed dose dependently”. In data set [4], the “TNF-α mRNA levels in liver” value was “suppressed dose dependently” and the “TNF-α levels in plasma” value is “suppressed dose dependently”.

One may read the IC50 as the midpoint of a concentration-inhibition curve. In general, melting point refers to the temperature, or range, at which the solid turns liquid. As to `COC1=C(OC)C(=O)C(Cc2ccc(O)c(C(=O)Nc3ccncc3)c2)=C(C)C1=O` [Example 157, N-(Pyridin-4-yl)-5-(5,6-dimethoxy-3-methyl-1,4-benzoquinon-2-yl)methyl-2-hydroxybenzamide], the melting point lay in the range of 171 to 172.5 °C. Moreover, the “acute inflammation (foot edema) caused by carrageenin” value in data set [1] is on record as “significantly suppressed”. The IC50 in data set [2] is 7 µg/mL. Also, in data set [4], the “TNF-α mRNA levels in liver” value was “suppressed dose dependently” and the “TNF-α levels in plasma” value is listed as “suppressed dose dependently”.

Consider `CC1=C(C)C(=O)C(Cc2ccc(O)c(C(=O)Nc3cccnc3Cl)c2)=C(C)C1=O` [Example 237], for which the melting point lay within 199 to 201 °C. Moreover, the IC50 in data set [2] is 5 µg/mL.
